pIC50: −log10 of the molar value.
What was measured:
[1] = tested on: caspase-9 activation in A2780 P cells; assay: Caspase-9 assay, A2780 P; type: cell-based, human; conditions: 72 hr, IC50 and IC75, FIG. 22
Procedure: (§1) Both floating and attached cells were collected by centrifugation. Cells, at a density of 1.5×10^6 cells/ml were washed with PBS and then re-suspended in chilled cell lysis buffer (supplied in the Caspase-3 colourimetric assay kit, Calbiochem, UK). Cells were incubated on ice for 10 min and then centrifuged for 1 min at 10,000 g. The cytosolic fraction (supernatant) was collected into a fresh tube and 50 μl (2 mg/ml) of each protein sample was transferred to a 96 well plate and diluted with lysis buffer. A 50 μl aliquot of X2 reaction buffer, containing 10 mM DTT was added, followed by 5 μl of 4 mM DEVD-pNA substrate to give a final concentration of 200 μM. The plate was then incubated at 37° C. for 1-2 h. OD was determined at 400 nm using an Anthos HT-II microtitreplate reader. The fold increase in caspase-3 and -9 activities was determined by comparing results to that obtained with un-induced control.

[2] = tested on: caspase-3 activation in A2780 cisR cells; assay: Caspase-3 colourimetric assay, A2780 cisR; type: cell-based, human; conditions: 72 hr, IC50 and IC75, FIG. 21
Procedure: as §1

[3] = tested on: A2780 P cells; assay: Inhibition of DNA synthesis, BrdU incorporation assay, A2780 P; type: cell-based, human; conditions: 72 hr, FIG. 18
Procedure: DNA synthesis was determined using 5-bromo-2-deoxyuridine (BrdU) colourimetric incorporation assay.^18 A2780 P and A2780 cisR cells were seeded into 96 well plates and allowed to adhere overnight. All test agents were added and incubated for 72 hr prior to the addition of BrdU (10 μM per well). Plates were then incubated at 37° C. for 4 h and incorporation was quantified by ELISA (Calbiochem).

[4] = tested on: caspase-3 activation in A2780 P cells; assay: Caspase-3 colourimetric assay, A2780 P; type: cell-based, human; conditions: 72 hr, IC50 and IC75, FIG. 20
Procedure: as §1

[5] = tested on: caspase-9 activation in A2780 cisR cells; assay: Caspase-9 assay, A2780 cisR; type: cell-based, human; conditions: 72 hr, IC50 and IC75, FIG. 23
Procedure: as §1

[6] = tested on: closed circular supercoiled pUC19 plasmid DNA; assay: DNA unwinding, agarose gel mobility shift assay; type: binding; conditions: 37° C., 48 h, range of concentrations
Procedure: Platinum compounds, such as cisplatin, that unwind the DNA duplex reduces the number of supercoils in closed circular DNA so that their number decreases. This decrease upon binding of unwinding agents causes a decrease in the rate of migration of DNA through agarose gel. Unwinding of closed circular supercoiled pUC19 plasmid DNA incubated with cis-[Pt^II(NH3)2(malSAHA−2H)] was assayed by an agarose gel mobility shift assay. Samples of plasmid DNA were incubated with platinum complexes at 37° C. in the dark for 48 h. All samples were subjected to electrophoresis on 1% native agarose gel running at 25° C. with TAE buffer and the voltage set at 25 V. The gels were then stained with EtBr, followed by photography with transilluminator.^16

[7] = target: T1, HDAC1 (Homo sapiens, UniProt Q13547); assay: Cayman HDAC1 Inhibitor Screening Assay Kit (fluorescence); type: biochemical
T1 construct: purchased Cayman Chemicals, Ann Arbor, USA
Procedure: The assay provides a fast two-step fluorescence-based method for measuring HDAC activity. Briefly, in the first step an acetylated lysine residue was incubated with HDAC1 and potential inhibitors. Deacetylation sensitises the substrate so that treatment with the HDAC developer in the second step releases a fluorescent product. The fluorescent reaction product was analysed using a plate reader with an excitation wavelengths of 350 nm and emission wavelengths of 460 nm.

[8] = tested on: DNA in CH1 cells (lymphoma); assay: Pt binding to DNA in cultured cells (ICP-MS), CH1; type: cell-based; conditions: 43 μM of Pt complexes, 2 hours of cell treatment
Procedure: Pt DNA binding of Pt complexes was measured in SW480 cells (colon cancer) and CH1 cells (lymphoma) or alternatively A2780 P and A2780 cisR cells (sensitive and resistant to cisplatin respectively). The cells were seeded in 60 mm tissue culture dishes with 10 ml of their respective medium. After overnight incubation the medium was removed and replaced with 10 ml of the respective medium containing a platinum complex giving a final concentration of 43 or 40 μM depending on the experiment. The cells were incubated with a given Pt complex for either 2 or 4 h depending on the experiment. The cells were trypsinised and centrifuged. The supernantant was removed and the cells washed twice with 1×PBS and centrifuged. The pellet was re-suspended in DNA buffer to which Proteinase K (20 mg/mL) and 10% SDS were added. After a gentle shake and incubation at 45° C. for two hours, RNAse (100 mg/mL) was added and the cells were incubated at 37° C. overnight. The volume of supernatant was noted and an equal volume of phenol was added.
The resulting mixture was shook for 10 min, then centrifuged for 10 min at 10° C. The supernatant was transferred into a new centrifuge tube (15 ml) and the volume was noted. […] The absorbance of the DNA by was measured by UV spectrophotometry at 260 nm and 280 nm and the concentration of DNA calculated. Platinum bound to DNA was determined by ICP-MS.

T1 sequence (Q13547 whole entry): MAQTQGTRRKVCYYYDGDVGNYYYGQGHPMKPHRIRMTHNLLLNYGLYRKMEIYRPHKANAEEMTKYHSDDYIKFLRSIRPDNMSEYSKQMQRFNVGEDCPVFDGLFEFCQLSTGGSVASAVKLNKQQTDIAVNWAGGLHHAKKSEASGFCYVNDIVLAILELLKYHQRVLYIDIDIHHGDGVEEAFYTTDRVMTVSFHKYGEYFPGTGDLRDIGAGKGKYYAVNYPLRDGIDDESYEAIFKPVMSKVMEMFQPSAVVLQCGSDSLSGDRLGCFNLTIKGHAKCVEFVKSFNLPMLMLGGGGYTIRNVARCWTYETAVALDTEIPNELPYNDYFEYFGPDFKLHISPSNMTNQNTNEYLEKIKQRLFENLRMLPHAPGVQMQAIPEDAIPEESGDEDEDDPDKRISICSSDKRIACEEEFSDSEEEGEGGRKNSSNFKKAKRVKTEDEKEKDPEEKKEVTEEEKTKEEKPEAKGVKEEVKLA

[NH2][Pt]1([NH2])[O]C(=O)C(Cc2ccc(NS(=O)(=O)c3ccc(/C=C/C(=O)NO)cc3)cc2)C(=O)[O]1 [cis-[Pt(NH3)2(malBel−2H)], cis-[Pt(NH3)2(malBel−2H)].1.5H2O]
caspase-9 activity [1]: an increase in both Caspase-3 and -9 activities | caspase-3 activity [2]: an increase in both Caspase-3 and -9 activities | effect on DNA synthesis, BrdU incorporation [3]: dose-dependant decrease in DNA synthesis | caspase-3 activity [4]: an increase in both Caspase-3 and -9 activities | caspase-9 activity [5]: an increase in both Caspase-3 and -9 activities

[NH2][Pt]1([NH2])[O]C(=O)C(Cc2ccc(NC(=O)CCCCCCC(=O)NO)cc2)C(=O)[O]1 [cis-[Pt(NH3)2(malSAHA−2H)], cis-[Pt(NH3)2(malSAHA−2H)].3H2O]
unwinding of negatively supercoiled pUC19 plasmid DNA (DNA binding) [6]: can induce unwinding in negatively supercoiled pUC19 plasmid DNA | inhibition of HDAC1 (in words) [7]: inhibit HDAC1 | pIC50 ([7]; read-out: IC50 against HDAC I at 200 μM, at 200 μM): 5.94

N.N.[Cl][Pt][Cl] [cisplatin, cis-[Pt^II(NH3)2Cl2], reference compound]
DNA-bound Pt in CH1 [8]: 10.5 · 10^−15 moles of Pt/μg of DNA

From patent US8901337B2, “Metal complexes having dual histone deacetylase inhibitory and DNA-binding activity” (Royal College of Surgeons in Ireland, priority 2009, dated 2014)
